Data reported in ChEMBL document CHEMBL5154881, “Discovery of First-in-Class TAK1-MKK3 Protein-Protein Interaction (PPI) Inhibitor (R)-STU104 for the Treatment of Ulcerative Colitis through Modulating TNF-α Production” (J Med Chem, 2022).

Assays:
Mus musculus [1] = test: Antiinflammatory activity against IL-10-/- C57BL/6 mouse model of acute ulcerative colitis assessed as decrease in serum IL-1beta levels administered intragastrically via gavage measured after 8 weeks by ELISA; format: functional, organism-based; details: dose 3-10 mg/kg, route ig, DDE = dose-dependent effect
Mus musculus [2] = test: Anti-ulcerative colitis activity in DSS-induced C57BL/6 mouse ulcerative colitis model assessed as histopathological score recovery ratio at 10 mg/kg, IG via gavage measured after 7 days by H and E staining method relative to control; format: functional; details: time 7 day
Mus musculus [3] = test: Anti-ulcerative colitis activity against DSS-induced ulcerative colitis C57BL/6 mouse model assessed as reduction in DAI recovery score ratio at 3 mg/kg, IG via gavage administered for 7 days and measured everyday relative to control; format: functional; design: scale not given: the % may be the effect or the level left; details: time 7 day
Mus musculus [4] = test: Anti-ulcerative colitis activity against DSS-induced ulcerative colitis C57BL/6 mouse model assessed as reduction in DAI recovery score ratio at 10 mg/kg, IG via gavage administered for 7 days and measured everyday relative to control; format: functional; design: scale not given: the % may be the effect or the level left; details: time 7 day
Mus musculus [5] = test: Anti-ulcerative colitis activity in IL-10-/- C57BL/6 mouse model of ulcerative colitis assessed as histopathological score recovery ratio at 10 mg/kg, IG via gavage for 8 weeks relative to control; format: functional
Mus musculus [6] = test: Antiinflammatory activity against IL-10-/- C57BL/6 mouse model of ulcerative colitis assessed as inhibition ratio of IL-1beta protein expression at 3 mg/kg, IG via gavage and measured after 8 weeks by ELISA relative to control; format: functional; design: scale not given: the % may be the effect or the level left
Mus musculus [7] = test: Anti-ulcerative colitis activity in IL-10-/- C57BL/6 mouse model of ulcerative colitis assessed as histopathological score recovery ratio at 3 mg/kg, IG via gavage for 8 weeks relative to control; format: functional
[8] = target: Voltage-gated inwardly rectifying potassium channel KCNH2 (Homo sapiens, UniProt Q12809); test: Inhibition of hERG; format: toxicity
Sequence of Voltage-gated inwardly rectifying potassium channel KCNH2 (Q12809 whole entry): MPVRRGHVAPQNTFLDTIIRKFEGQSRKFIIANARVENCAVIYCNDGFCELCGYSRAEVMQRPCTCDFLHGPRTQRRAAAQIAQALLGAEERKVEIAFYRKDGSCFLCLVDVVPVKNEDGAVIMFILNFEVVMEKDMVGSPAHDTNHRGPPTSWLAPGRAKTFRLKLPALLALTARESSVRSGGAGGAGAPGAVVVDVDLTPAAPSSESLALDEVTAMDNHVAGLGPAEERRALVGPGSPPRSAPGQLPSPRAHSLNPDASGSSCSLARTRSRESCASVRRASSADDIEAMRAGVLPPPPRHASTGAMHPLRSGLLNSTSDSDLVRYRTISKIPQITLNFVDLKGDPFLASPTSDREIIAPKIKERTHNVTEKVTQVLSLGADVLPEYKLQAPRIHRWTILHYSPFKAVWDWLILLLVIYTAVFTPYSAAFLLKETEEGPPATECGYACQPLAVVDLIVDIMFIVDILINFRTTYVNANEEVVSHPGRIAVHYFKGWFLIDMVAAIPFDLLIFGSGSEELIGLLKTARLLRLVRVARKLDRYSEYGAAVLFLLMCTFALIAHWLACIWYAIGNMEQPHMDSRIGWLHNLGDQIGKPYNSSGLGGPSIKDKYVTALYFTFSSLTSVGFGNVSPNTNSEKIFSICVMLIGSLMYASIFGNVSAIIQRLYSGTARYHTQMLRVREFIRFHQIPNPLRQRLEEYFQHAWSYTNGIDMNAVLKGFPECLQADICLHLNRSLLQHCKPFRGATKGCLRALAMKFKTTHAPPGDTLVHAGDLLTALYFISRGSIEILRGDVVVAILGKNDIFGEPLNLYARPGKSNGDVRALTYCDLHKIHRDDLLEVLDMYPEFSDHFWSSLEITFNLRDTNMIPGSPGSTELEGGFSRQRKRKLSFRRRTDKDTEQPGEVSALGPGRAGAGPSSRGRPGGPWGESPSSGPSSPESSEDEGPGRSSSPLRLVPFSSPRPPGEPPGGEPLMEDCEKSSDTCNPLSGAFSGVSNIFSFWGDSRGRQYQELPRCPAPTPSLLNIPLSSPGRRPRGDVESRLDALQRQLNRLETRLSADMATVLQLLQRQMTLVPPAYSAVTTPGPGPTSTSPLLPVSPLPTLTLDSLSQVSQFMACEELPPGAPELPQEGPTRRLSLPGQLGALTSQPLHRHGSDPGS

Mus musculus [9] = test: Anti-ulcerative colitis activity against DSS-induced ulcerative colitis C57BL/6 mouse model assessed as body weight recovery rate at 3 mg/kg, IG via gavage administered for 7 days and measured everyday relative to control; format: functional; details: time 7 day
[10] = Toxicity in C57 mouse assessed as lung damage at 50 to 500 mg/kg, po administered daily for 14 days; format: organism-based; details: in vivo, 336 h, dose 50-500 mg/kg, time 14 day
Mus musculus [11] = test: Anti-ulcerative colitis activity in IL-10-/- C57BL/6 mouse model of ulcerative colitis assessed as body weight recovery ratio at 3 mg/kg, IG via gavage for 8 weeks and measured everyday relative to control; format: functional
Mus musculus [12] = test: Antiinflammatory activity against DSS-induced C57BL/6 mouse model of acute ulcerative colitis assessed as inhibition ratio of IL-6 mRNA expression in colon tissue at 1 mg/kg, IG via gavage measured after 7 days by RT-qPCR analysis relative to control; format: functional; design: scale not given: the % may be the effect or the level left; details: time 7 day
Mus musculus [13] = test: Anti-ulcerative colitis activity against DSS-induced ulcerative colitis C57BL/6 mouse model assessed as reduction in DAI recovery score ratio at 1 mg/kg, IG via gavage administered for 7 days and measured everyday relative to control; format: functional; design: scale not given: the % may be the effect or the level left; details: time 7 day
Mus musculus [14] = test: Antiinflammatory activity against IL-10-/- C57BL/6 mouse model of ulcerative colitis assessed as inhibition ratio of IL-6 protein expression at 10 mg/kg, IG via gavage and measured after 8 weeks by ELISA relative to control; format: functional; design: scale not given: the % may be the effect or the level left
Mus musculus [15] = test: Antiinflammatory activity against DSS-induced C57BL/6 mouse model of acute ulcerative colitis assessed as inhibition ratio of IL-1beta mRNA expression in colon tissue at 1 mg/kg, IG via gavage measured after 7 days by RT-qPCR analysis relative to control; format: functional; design: scale not given: the % may be the effect or the level left; details: time 7 day
Mus musculus [16] = test: Antiinflammatory activity against DSS-induced C57BL/6 mouse model of acute ulcerative colitis assessed as inhibition ratio of TNF-alpha mRNA expression in colon tissue at 3 mg/kg, IG via gavage measured after 7 days by RT-qPCR analysis relative to control; format: functional; design: scale not given: the % may be the effect or the level left; details: time 7 day
Mus musculus [17] = test: Antiinflammatory activity against DSS-induced C57BL/6 mouse model of acute ulcerative colitis assessed as inhibition ratio of IL-23 mRNA expression in colon tissue at 10 mg/kg, IG via gavage measured after 7 days by RT-qPCR analysis relative to control; format: functional; design: scale not given: the % may be the effect or the level left; details: time 7 day
[18] = Toxicity in C57 mouse assessed as body weight loss at 50 to 500 mg/kg, po administered daily for 14 days; format: organism-based; details: in vivo, 336 h, dose 50-500 mg/kg, time 14 day
Mus musculus [19] = test: Antiinflammatory activity against DSS-induced C57BL/6 mouse model of acute ulcerative colitis assessed as inhibition ratio of IL-6 mRNA expression in colon tissue at 3 mg/kg, IG via gavage measured after 7 days by RT-qPCR analysis relative to control; format: functional; design: scale not given: the % may be the effect or the level left; details: time 7 day
[20] = Cmax in 12 hr starved C57 mouse at 30 mg/kg, po measured for 0.083 to 24 hrs post-dose by LC-MS-MS analysis; format: ADME, organism-based; design: dose 30 mg/kg, time 0.083-24 hrs, route po; details: in vivo
Mus musculus [21] = test: Antiinflammatory activity against IL-10-/- C57BL/6 mouse model of ulcerative colitis assessed as inhibition ratio of TNF-alpha protein expression at 3 mg/kg, IG via gavage and measured after 8 weeks by ELISA relative to control; format: functional; design: scale not given: the % may be the effect or the level left
Mus musculus [22] = test: Antiinflammatory activity against DSS-induced C57BL/6 mouse model of acute ulcerative colitis assessed as inhibition ratio of IL-23 protein expression at 10 mg/kg, IG via gavage measured after 7 days by ELISA relative to control; format: functional; design: scale not given: the % may be the effect or the level left; details: time 7 day
Mus musculus [23] = test: Antiinflammatory activity against DSS-induced C57BL/6 mouse model of acute ulcerative colitis assessed as inhibition of IL-6 mRNA expression in colon tissue administered intragastrically via gavage measured after 7 days by RT-qPCR analysis; format: functional, organism-based; details: route ig, time 7.0 day, DDE = dose-dependent effect
[24] = Apparent clearance during terminal phase in 12 hr starved C57 mouse at 5 mg/kg, iv measured for 0.083 to 24 hrs post-dose by LC-MS-MS analysis; format: ADME, organism-based; details: in vivo, time 0.083-24 hrs
[25] = AUC (0 to infinity) in 12 hr starved C57 mouse at 5 mg/kg, iv measured for 0.083 to 24 hrs post-dose by LC-MS-MS analysis; format: ADME, organism-based; design: time upper 24 hrs, time lower 0.083 hrs, dose 5 mg/kg, route iv; details: in vivo
[26] = n-Octanol/water partition coefficient, logP of the compound incubated for 24 hrs by HPLC analysis; format: physicochemical
Mus musculus [27] = test: Antiinflammatory activity against IL-10-/- C57BL/6 mouse model of acute ulcerative colitis assessed as decrease in serum IL-23 levels administered intragastrically via gavage measured after 8 weeks by ELISA; format: functional, organism-based; details: dose 3-10 mg/kg, route ig, DDE = dose-dependent effect
[28] = Mutagenicity in Salmonella typhimurium by Ames test; format: toxicity; details: salmonella enterica subsp. enterica serovar typhimurium
Mus musculus [29] = test: Antiinflammatory activity against IL-10-/- C57BL/6 mouse model of acute ulcerative colitis assessed as decrease in serum IL-6 levels administered intragastrically via gavage measured after 8 weeks by ELISA; format: functional, organism-based; details: dose 3-10 mg/kg, route ig, DDE = dose-dependent effect
Mus musculus [30] = test: Inhibition of MKK3-p38 MAPK-elF4E signaling pathway in C57BL/6 mouse model of acute ulcerative colitis assessed as decrease in DSS-induced elF4E phosphorylation in colon tissue administered intragastrically via gavage measured after 7 days by Western blot analysis; details: dose 1-50 mg/kg, time 7.0 day, DDE = dose-dependent effect
Mus musculus [31] = test: Antiinflammatory activity against DSS-induced C57BL/6 mouse model of acute ulcerative colitis assessed as inhibition ratio of IL-6 protein expression at 3 mg/kg, IG via gavage measured after 7 days by ELISA relative to control; format: functional; design: scale not given: the % may be the effect or the level left; details: time 7 day

COc1ccc([C@H]2CC(=O)c3cc(OC)cc(OC)c32)cc1
Activity (Mus musculus [1]): Dde | Activity (Mus musculus [2]): 70% | Activity (Mus musculus [3]): 40% | Activity (Mus musculus [4]): 45% | Activity (Mus musculus [5]): 56.7% | Activity (Mus musculus [6]): 50% | Activity (Mus musculus [7]): 50.5% | IC50 [8]: > 30 µM | Activity (Mus musculus [9]): 22.7% | Activity [10]: Non-Toxic | Activity (Mus musculus [11]): 14.8% | Activity (Mus musculus [12]): 32.8% | Activity (Mus musculus [13]): 20% | Activity (Mus musculus [14]): 57.6% | Activity (Mus musculus [15]): 70.1% | Activity (Mus musculus [16]): 73.2% | Activity (Mus musculus [17]): 90.5% | Activity [18]: Non-Toxic | Activity (Mus musculus [19]): 68% | Cmax [20]: 2290 ng/mL | Activity (Mus musculus [21]): 60.3% | Activity (Mus musculus [22]): 52.3% | Activity (Mus musculus [23]): Dde | CLz/F [24]: 9.67 mL/min/kg | AUC(0-inf) [25]: 8640 ng·h/mL | logP at 24 h [26]: 2.01 | Activity (Mus musculus [27]): Dde | Activity [28]: Non-Toxic | Activity (Mus musculus [29]): Dde | inhibition (Mus musculus [30]): Dde | Activity (Mus musculus [31]): 53.5%
